In assay [1] the test system is pERK1/2(THR202/TYR204) level in SW620 cell line. Kind of assay: KRAS G12V pERK assay in SW620 cells (HTRF). It counts as cell-based. Summed up: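 SW620 cells were treated for 2 h with a 10-point dilution series (final 0–10 μM) after overnight seeding. Lysates were then incubated overnight at room temperature with Eu3+-cryptate and acceptor anti-phospho-ERK1/2 antibodies, and HTRF was read at 655 nm. IC50 was fitted from percent inhibition versus log concentration.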
In general terms: Time-resolved FRET reads energy transfer from a long-lived donor to a nearby acceptor.

In assay [2] the target is GST-tagged GDP-loaded KRAS G12D (amin acids 1-188) (Homo sapiens, UniProt P01116, G12D). As to the kind of experiment: KRAS G12D probe displacement assay (TR-FRET). It is filed as binding. The conditions noted are these: Table 5; KRAS G12D 0.5 nM, biotinylated probe 2 4 nM. On the procedure: Plates are incubated at 24° C. for 1 hr.
Sequence of GST-tagged GDP-loaded KRAS G12D (amin acids 1-188) (P01116 1-188 isoform P01116-2 G12D): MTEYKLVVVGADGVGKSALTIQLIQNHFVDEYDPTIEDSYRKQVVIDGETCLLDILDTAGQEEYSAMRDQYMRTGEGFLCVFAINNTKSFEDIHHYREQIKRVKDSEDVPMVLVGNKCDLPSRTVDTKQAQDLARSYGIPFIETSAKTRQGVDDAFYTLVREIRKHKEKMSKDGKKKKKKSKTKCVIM
For assay [3], the system named is pERK1/2(THR202/TYR204) level in AsPC-1 cell line. As to the kind of experiment: KRAS G12D pERK assay in AsPC-1 cells (HTRF). It counts as cell-based. On the procedure: AsPC-1 cell line was used in this study. Cells were maintained in RPMI-1640 supplemented with 10% fetal bovine serum (Thermo Fisher), 50 units/ml, penicillin and streptomycin (Thermo Fisher) and kept at 37° C. in a humidified atmosphere of 5% CO2 in air. Cells were reinstated from frozen stocks that were laid down within 30 passages from the original cells purchased. 30000 cells per well were seeded into a 96-well plate and incubated overnight. Cells were treated with a 10-point dilution series. The final compound concentration is from 0 to 10 μM. After 2 h compound treatment, cells were lysed, and the pERK1/2(THR202/TYR204) level in the cell lysates was detected by HTRF kit (Cisbio). In brief, a total of 16 μL of cell lysate from each well of a 96-well plate was transferred to a 384-well white assay plate. Lysate from each well was incubated with 2 μL of Eu3+-cryptate (donor) labeled anti-phospho-ERK1/2 and 2 μL of D2 (acceptor) labeled anti-phospho-ERK1/2 antibodies (Cisbio) overnight in dark at room temperature. When the donor and acceptor are in close proximity, excitation of the donor with laser triggers a Fluorescence Resonance Energy Transfer (FRET) towards the acceptor, which in turn fluoresces at 655 nm wavelength. FRET signals were measured using a PHERAstar FSX reader (BMG Labtech). IC50 determination was performed by fitting the curve of percent inhibition versus the log of the inhibitor concentration using Dotmatics.

The target in assay [4] is GST-tagged GDP-loaded KRAS G12V (amino acids 1-169) (Homo sapiens, UniProt P01116, G12V). As to the kind of experiment: KRAS G12V probe displacement assay (TR-FRET). It is filed as binding. To be noted: Table 4; KRAS G12V 2 nM, biotinylated probe 2 2.5 nM. On the procedure: Plates are incubated at 24 °C for 1 hr. […] After 1 hr incubation at 24° C.
Sequence of GST-tagged GDP-loaded KRAS G12V (amino acids 1-169) (P01116 1-169 isoform P01116-2 G12V): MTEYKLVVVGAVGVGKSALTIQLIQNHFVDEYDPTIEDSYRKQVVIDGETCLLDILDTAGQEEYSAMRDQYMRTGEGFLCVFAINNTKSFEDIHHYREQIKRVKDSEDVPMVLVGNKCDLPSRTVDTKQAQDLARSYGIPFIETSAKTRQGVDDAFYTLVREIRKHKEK
Setting [5] is: Homo sapiens, SW-620, Table 4, 2 hrs compound treatment.
Setting [6] is: Homo sapiens, ASPC1, Table 5, 2 h compound treatment.

What is called IC50 is the concentration at which inhibition is half-maximal. A high value points to weaker potency in that assay. In the case of `CN1c2nc(OC[C@@]34CCCN3C[C@H](F)C4)nc3c(F)c(-c4cc(N)cc(Cl)c4C(F)(F)F)nc(c23)OC[C@@H]2COC[C@H]21` (single isomer, unassigned) [Example 68 Isomer 2], the IC50 in assay [1] (setting [5]) was determined as 1.4 nM; in assay [2], 0.14 nM; in assay [3] (setting [6]), 6.9 nM; in assay [4] it was 0.51 nM.
For `CN1CCCOc2cc(-c3ccc(F)c4sc(N)c(C#N)c34)c(F)c3nc(OC[C@@]45CCCN4C[C@H](F)C5)nc1c23` [Example 2, 2-amino-7-fluoro-4-(11-fluoro-2-(((2R,7aS)-2-fluorotetrahydro-1H-pyrrolizin-7a(5H)-yl)methoxy)-4-methyl-4.5,6,7-tetrahydro-[1,5]oxazocino[4,3,2-de]quinazolin-10-yl)benzo[b]thiophene-3-carbonitrile], in that order: 255 nM, 6.2 nM, 594 nM and 3.6 nM.
The matching figures for `C#Cc1c(F)ccc2cc(O)cc(-c3nc4c5c(nc(OC[C@@]67CCCN6C[C@H](F)C7)nc5c3F)N(C)CCCO4)c12` [Example 10, 5-ethynyl-6-fluoro-4-(4-fluoro-2-(((2R,7aS)-2-fluorotetrahydro-1H-pyrrolizin-7a(5H)-yl)methoxy)-11-methyl-8,9,10,11-tetrahydro-7-oxa-1,3,6,11-tetraazacycloocta[de]naphthalen-5-yl)naphthalen-2-ol]: 103 nM, 1.1 nM, 123 nM and 1.4 nM.
On to `CN1c2nc(OC[C@@]34CCCN3C[C@H](F)C4)nc3c(F)c(-c4cc(N)cc(Cl)c4C(F)(F)F)nc(c23)OCCC12COC2` [Example 30, 3-chloro-5-(4-fluoro-2-(((2R,7aS)-2-fluorotetrahydro-1H-pyrrolizin-7a(5H)-yl)methoxy)-11-methyl-8,9-dihydro-11H-7-oxa-1,3,6,11-tetraazaspiro[cycloocta[de]naphthalene-10,3′-oxetan]-1(11a), 2,3a, 3a^1(6a), 5-pentaen-5-yl)-4-(trifluoromethyl)aniline], for which the IC50 in assay [1] (Table 4, 2 hrs compound treatment) came out at 13 nM; in assay [2], 0.31 nM; in assay [3] (Table 5, 2 h compound treatment), 11 nM; in assay [4] it was 0.63 nM.
Take `CN1c2nc(OC[C@@]34CCCN3C[C@H](F)C4)nc3c(F)c(-c4cc(N)cc(Cl)c4C(F)(F)F)nc(c23)OCCC12CC2` [Example 31, 3-chloro-5-(4-fluoro-2-(((2R,7aS)-2-fluorotetrahydro-1H-pyrrolizin-7a(5H)-yl)methoxy)-11-methyl-8,9-dihydro-11H-7-oxa-1,3,6,11-tetraazaspiro[cycloocta[de]naphthalene-10,1′-cyclopropan]-1(11a), 2,3a, 4,6-pentaen-5-yl)-4 (trifluoromethyl)aniline]: the IC50 in assay [1] (setting [5]) turned out to be 32 nM; in assay [2], 0.43 nM; in assay [3] (setting [6]), 40 nM; in assay [4], 0.51 nM.
With `CNCCN1c2nc(OC[C@@]34CCCN3C[C@H](F)C4)nc3c(F)c(-c4cc(N)cc(Cl)c4C(F)(F)F)nc(c23)OCC12CCC2` [Example 36, 3-chloro-5-(4′-fluoro-2′-(((2R,7aS)-2-fluorotetrahydro-1H-pyrrolizin-7a(5H)-yl)methoxy)-10′-(2-(methylamino)ethyl)-8′H, 10′H-7′-oxa-1′,3′,6′,10′-tetraazaspiro[cyclobutane-1,9′-cyclohepta[de]naphthalen]-1′(10a′), 2′0.3a′, 3 al′(6a′), 5′-pentaen-5′-yl)-4-(trifluoromethyl)aniline], the IC50 in assay [2] turned out to be 1.1 nM; in assay [3] (setting [6]), 2160 nM.
`CN(C)CCN1c2nc(OC[C@@]34CCCN3C[C@H](F)C4)nc3c(F)c(-c4cc(N)cc(Cl)c4C(F)(F)F)nc(c23)OCC12CCC2` [Example 37, 3-chloro-5-(10′-(2-(dimethylamino)ethyl)-4′-fluoro-2′-(((2R,7aS)-2-fluorotetrahydro-1H-pyrrolizin-7a(5H)-yl)methoxy)-8′H, 10′H-7′-oxa-1′,3′,6′,10′-tetraazaspiro[cyclobutane-1,9′-cyclohepta[de]naphthalen]-1′(10a′), 2′,3a′, 3 al′(6a′), 5′-pentaen-5′-yl)-4-(trifluoromethyl)aniline]: the IC50 was 2.3 nM in assay [2] and 639 nM in assay [3] (setting [6]).
For `CNCC(C)N1c2nc(OC[C@@]34CCCN3C[C@H](F)C4)nc3c(F)c(-c4cc(N)cc(Cl)c4C(F)(F)F)nc(c23)OCC12CCC2` (stereo partly drawn) [Example 38, 3-chloro-5-(4′-fluoro-2′-(((2R,7aS)-2-fluorotetrahydro-1H-pyrrolizin-7a(5H)-yl)methoxy)-10′-(1-(methylamino)propan-2-yl)-8′H, 10′H-7′-oxa-1′,3′,6′,10′-tetraazaspiro[cyclobutane-1,9′-cyclohepta[de]naphthalen]-1′(10a′), 2′,3a′, 3 al′(6a′), 5′-pentaen-5′-yl)-4-(trifluoromethyl)aniline], in that order: 0.38 nM and 102 nM.
The matching figures for `CNCC(C)N1CCCOc2nc(-c3cc(N)cc(Cl)c3C(F)(F)F)c(F)c3nc(OC[C@@]45CCCN4C[C@H](F)C5)nc1c23` (stereo partly drawn) [Example 39, 3-chloro-5-(4-fluoro-2-(((2R,7aS)-2-fluorotetrahydro-1H-pyrrolizin-7a(5H)-yl)methoxy)-11-(1-(methylamino)propan-2-yl)-8,9,10,11-tetrahydro-7-oxa-1,3,6,11-tetraazacycloocta[de]naphthalen-5-yl)-4-(trifluoromethyl)aniline]: 3.9 nM and 1780 nM.
With `CC(CN(C)C)N1CCCOc2nc(-c3cc(N)cc(Cl)c3C(F)(F)F)c(F)c3nc(OC[C@@]45CCCN4C[C@H](F)C5)nc1c23` (stereo partly drawn) [Example 40, 3-chloro-5-(11-(1-(dimethylamino)propan-2-yl)-4-fluoro-2-(((2R,7aS)-2-fluorotetrahydro-1H-pyrrolizin-7a(5H)-yl)methoxy)-8,9,10,11-tetrahydro-7-oxa-1,3,6,11-tetraazacycloocta[de]naphthalen-5-yl)-4-(trifluoromethyl)aniline], the IC50 turned out to be 7.6 nM in assay [2] and 2000 nM in assay [3] (setting [6]).
For `CNCCN1c2nc(OC[C@@]34CCCN3C[C@H](F)C4)nc3c(F)c(-c4cc(N)cc(Cl)c4C(F)(F)F)nc(c23)OCCC12CC2` [Example 42, 3-chloro-5-(4-fluoro-2-(((2R,7aS)-2-fluorotetrahydro-1H-pyrrolizin-7a(5H)-yl)methoxy)-11-(2-(methylamino)ethyl)-8,9-dihydro-11H-7-oxa-1,3,6,11-tetraazaspiro[cycloocta[de]naphthalene-10,1′-cyclopropan]-1(11a), 2,3a, 4,6-pentaen-5-yl)-4-(trifluoromethyl)aniline], in that order: 0.17 nM and 141 nM.
For `CN(C)CCN1c2nc(OC[C@@]34CCCN3C[C@H](F)C4)nc3c(F)c(-c4cc(N)cc(Cl)c4C(F)(F)F)nc(c23)OCCC12CC2` [Example 43, 3-chloro-5-(11-(2-(dimethylamino)ethyl)-4-fluoro-2-(((2R,7aS)-2-fluorotetrahydro-1H-pyrrolizin-7a(5H)-yl)methoxy)-8,9-dihydro-11H-7-oxa-1,3,6,11-tetraazaspiro[cycloocta[de]naphthalene-10,1′-cyclopropan]-1(11a), 2,3a, 4,6-pentaen-5-yl)-4-(trifluoromethyl)aniline], in that order: 0.73 nM and 92 nM.
For `CN(C)CCN1c2nc(OC[C@@]34CCCN3C[C@H](F)C4)nc3c(F)c(-c4cc(N)cc(Cl)c4C(F)(F)F)nc(c23)OCCC12COC2` [Example 44, 3-chloro-5-(11-(2-(dimethylamino)ethyl)-4-fluoro-2-(((2R,7aS)-2-fluorotetrahydro-1H-pyrrolizin-7a(5H)-yl)methoxy)-8,9-dihydro-11H-7-oxa-1,3,6,11-tetraazaspiro[cycloocta[de]naphthalene-10,3′-oxetan]-1(11a), 2,3a, 4,6-pentaen-5-yl)-4-(trifluoromethyl)aniline], in that order: 0.65 nM and 184 nM.
With `CNCCN1c2nc(OC[C@@]34CCCN3C[C@H](F)C4)nc3c(F)c(-c4cc(N)cc(Cl)c4C(F)(F)F)nc(c23)O[C@H]2CCCC[C@@H]21` [Example 48, 3-chloro-5-((7aS,11aS)-4-fluoro-2-(((2R,7aS)-2-fluorotetrahydro-1H-pyrrolizin-7a(5H)-yl)methoxy)-12-(2-(methylamino)ethyl)-7a, 8,10,11,11a, 12-hexahydro-9H-7-oxa-1,3,6,12-tetraazapleiaden-5-yl)-4-(trifluoromethyl)aniline], the IC50 in assay [2] was 20 nM; in assay [3] (setting [6]) it was 3380 nM.

Values taken from US20240262848A1, “HETEROCYCLIC COMPOUNDS, COMPOSITIONS THEREOF, AND METHODS OF TREATMENT THEREWITH” (BeiGene, Ltd., priority 2022, published 2024).
